{"source": "patent US20120039981A1", "about": "“Chewing Gum And Particulate Material For Controlled Release Of Active Ingredients” (priority 2009, published 2012)", "text": "Absorption of nicotine from the oral cavity to the systemic circulation is dependent on the pH of the saliva and the […] of nicotine, which is about 7.8. Assuming a pH of the saliva of 6.8 only about 10% of the nicotine in saliva will be in the free base form. Thus, in order to promote absorption of nicotine in a free base form, which is the form predomi-nantly absorbed through the mucosa, the pH of the saliva must be increased. At a pH of 8.8 about 90% of the nicotine in saliva will then be in the free base form.", "note": "Where two headings read alike, the source gives them in different places.", "data": [{"smiles": "CN1CCCC1c1cccnc1", "note": "(centres unmarked) [nicotine, 3-(1-methyl-2-pyrrolidinyl)-pyridine]", "values": [{"measurement": "nicotine in saliva in the free base form", "setting": "saliva pH 6.8", "result": "about 10%"}, {"measurement": "nicotine in saliva in the free base form", "setting": "saliva pH 8.8", "result": "about 90%"}]}]}
